Consider six compounds from US11548891B1, “Quaternary ammonium salts of phenanthroindolizidine and phenanthroquinolizidine alkaloids as hypoxia-targeted anticancer agents” (BATTERJEE MEDICAL COLLEGE, priority 2022, dated 2023).

Like-named read-outs stand apart in the source and are kept apart here.

Data set [1] is described as follows: PBS (pH 7.4) solubility. The data set is classed as physicochemical. How it is done:
(§1) Water solubility, log D, and PAMPA-BBB were evaluated using the protocols as described in Omran, et. al. [Omran, Z., et. al., Chem. Pharm. Bull., 2019, 67, 1208-1210, incorporated herein by reference in its entirety].

A short description of data set [2]: LogD. The data set is classed as physicochemical. The method, then: as §1
Data set [3] can be described thus: BBB-Parallel Artificial Membrane Permeability Assay (BBB-PAMPA). The data set is classed as in vitro ADME. How it is done:
The physicochemical properties of the new compounds were evaluated (Table 1). […] Consequently, these derivatives lost their BBB penetrability, as predicted by the BBB-Parallel Artificial Membrane Permeability Assay (BBB-PAMPA), whereas their parent alkaloids had free passage through the BBB.
as §1
A general note: In PAMPA a lipid-coated filter parts donor from acceptor wells.

Data set [4] can be described thus: Mouse microsomal liver stability assay. The following applies: mouse hepatic microsomes, 2 μM, 37° C. The method, then: Protoc. […] Microsomal incubations were carried out in 96-well plates in 5 aliquots of 40 μL each. […] Control incubations were performed by replacing the NADPH-cofactor system with PBS. The additional control incubations in PBS (with 3.3 mM MgCl2) without added microsomes were carried out in this study. […] The incubations were performed in duplicates. Five time points over 40 min had been analyzed. The reactions were stopped by adding 12 volumes of 90% acetonitrile-water to incubation aliquots, followed by protein sedimentation by centrifuging at 5500 rpm for 3 min. The supernatants were analyzed using LC-MS as mentioned above.

For data set [5], the system named is HEK293. Description: Cytotoxicity under normoxia (MTT), HEK293. The data set is classed as cell-based, Human. The method, then: (§2) The cytotoxicity of the compounds 5a-c and their parent alkaloids was evaluated by the 3-[4,5-dimethylthiazole-2-yl]-2,5-diphenyltetrazolium bromide (MTT) assay against 5 cancerous and 2 non-cancerous cell lines (Table 4).
(§3) The eight cell lines HEK293 (Human embryonic kidney 293), CHO-Kt (Chinese hamster ovary K1), MCF-7 cells (Human breast adenocarcinoma), HCT116 (human colorectal carcinoma), RKO (Human rectal carcinoma), SW480 (human colorectal carcinoma), H460 (Human lung cancer), and MRCS (Normal human fetal lung fibroblast), were obtained from the ATCC. The cell lines were routinely grown in alpha minimum essential medium (α-MEM) containing 5% fetal calf serum (FCS). The appropriate number of cells (HCT116=400 cells/well, H460 cells=600 cells/well) were seeded into 96-well plates under normoxic or hypoxic conditions. Cells were plated in 100 μL α-MEM containing 10% FCS, 10 mM D-Glucose and 0.2 mM 20-deoxycytidine. After incubation for 2 h, the compounds were added at the appropriate concentration and incubated for further 4 h. The cells were then washed three times with drug-free α-MEM (containing 5% FCS and pen/strep). The plates were then incubated for 5 days under normoxic conditions. The cells were stained with sulphorhodamine B to measure total cells as per the standard procedure described in Skehan, et. al. [Skehan, P., et. al., J. Natl. Cancer Inst., 1990, 82, 1107-1112, incorporated herein by reference in its entirety]. The IC50 was determined by interpolation as the compound concentration reducing staining to 50% of controls on the same plate as per the standard procedure described in Guise, et. al. [Guise, C. P., et. al., Biochem. Pharmacol., 2007, 74, 810-820, incorporated herein by reference in its entirety].

The subject of data set [6] is CHO-K1. Kind of data set: Cytotoxicity under normoxia (MTT), CHO-K1. Type of data set: cell-based, Chinese hamster. How it is done: as §2, §3
The subject of data set [7] is MCF7. Description: Cytotoxicity under normoxia (MTT), MCF7. The data set is classed as cell-based, Human. The method, then: as §2, §3
The test system of data set [8] is HCT116. Kind of data set: Cytotoxicity under normoxia (MTT), HCT116. Type of data set: cell-based, human. The method, then:
as §2, §3

In data set [9] the test system is RKO. Kind of data set: Cytotoxicity under normoxia (MTT), RKO. Type of data set: cell-based, Human. As to conditions: read-out: IC50 RKO. How it is done: as §2, §3
Data set [10] concerns SW480. Kind of data set: Cytotoxicity under normoxia (MTT), SW480. Type of data set: cell-based, human. The method, then:
as §2, §3

The subject of data set [11] is MRC5. Description: Cytotoxicity under normoxia (MTT), MRC5. The data set is classed as cell-based, human. How it is done:
as §2, §3

Data set [12] deals with HCT116. Kind of data set: Cytotoxicity under normoxia and hypoxia (anaerobic chamber), HCT116. As to conditions: for HCR (Hypoxia Cytotoxicity Ratio = normoxic IC50/hypoxic IC50): HTC 116; for IC50: 4 h exposure. Type of data set: cell-based, human. The method, then: (§4) The ability of the designed prodrugs to liberate the active alkaloids in hypoxic tumors was evaluated by testing them under hypoxic conditions using an anaerobic chamber. The three prodrugs 5a-c and their parent alkaloids as well as the reference compounds PR-104A, the parent alcohol form of the phosphate pre-prodrug PR-104, and evofosfamide were tested using the HCT116 and H460 cell lines under both normoxic and hypoxic conditions (Table 5). The prodrugs were much less cytotoxic than the parent drugs, in agreement with the results using the other cell lines described above (see FIG. 6).
as §3

Data set [13] concerns H460. Kind of data set: Cytotoxicity under normoxia and hypoxia (anaerobic chamber), H460. Type of data set: cell-based, Human. The following applies: for HCR (Hypoxia Cytotoxicity Ratio = normoxic IC50/hypoxic IC50): H460; for IC50: 4 h exposure. The method, then:
as §4, §3

Setting [14] is: normoxia, read-out: IC50 HEK293.
The mark [15] stands for this setting: normoxia, read-out: IC50 CHO-K1.
Setting [16] is: normoxia, read-out: IC50 HCT116.
Setting [17] is: HTC 116, hypoxia, read-out: IC50 (Hypoxia).
Setting [18] is: HTC 116, normoxia, read-out: IC50 (Normoxia).
[19] abbreviates: H460, hypoxia, read-out: IC50 (Hypoxia).
[20] abbreviates: H460, normoxia, read-out: IC50 (Normoxia).

One may read the IC50 as the concentration that gives 50% inhibition.

With `COc1ccc2c3c(c4cc(OC)c(OC)cc4c2c1)C[C@H]1CCCN1C3` [(R)-Antofine, (R)-antofine], in [1], the “PBS (pH 7.4) Solubility μM Mean ± SE” value turned out to be 27 ± 2 μM. In addition, the “LogD Mean ± SE” value in data set [2] is reported as 3.68 ± 0.03. Moreover, the “Permeability (Papp) Log [10^−6 cm/s] Mean ± SE” value in [3] was −5.6 ± 0.58 Log [10^−6 cm/s]. The “Kel, min^−1 (elimination rate constant)” value in data set [4] was 0.002 ± 0 min⁻¹. In data set [4], the “t1/2, min” value worked out at 1.12 ± 0.035 h. Also, the half-maximal inhibitory concentration (IC50) was determined as 0.34 ± 0.043 µM in data set [5] (setting [14]); 0.033 ± 0.05 µM in [6] (setting [15]); 0.002 µM in [7] (normoxia, read-out: IC50 MCF7); 0.002 µM in data set [8] (setting [16]); 0.002 µM in data set [9] (normoxia); 0.009 ± 0.002 µM in data set [10] (normoxia, read-out: IC50 SW480). For the same compound, the IC50 came to 0.006 ± 0.002 µM in data set [11] (normoxia, read-out: IC50 MRC5); 0.0167 µM in data set [12] (setting [17]); 0.0239 µM in data set [12] (setting [18]); 0.0254 µM in [13] (setting [19]); 0.0292 µM in data set [13] (setting [20]). In addition, the “HCR (Hypoxia Cytotoxicity Ratio = normoxic IC50/hypoxic IC50)” value in data set [12] is on record as 0.4; in [13], 0.6.
Regarding `COc1cc2c3c(c4cc(OC)c(OC)cc4c2cc1OC)CN1CCC[C@@H]1C3` [(R)-Tylophorine], the IC50 in data set [7] (normoxia, read-out: IC50 MCF7) is 0.101 ± 0.088 µM; in data set [8] (setting [16]) it was 0.44 ± 0.036 µM; in data set [9] (normoxia), 0.338 ± 0.061 µM; in [10] (normoxia, read-out: IC50 SW480), 1.15 ± 0.244 µM; in data set [11] (normoxia, read-out: IC50 MRC5), 0.095 ± 0.006 µM; in [12] (setting [17]), 0.0564 µM. In addition, the IC50 in [12] (setting [18]) is 1.71 µM; in data set [13] (setting [19]) it was 0.161 µM; in data set [13] (setting [20]), 0.175 µM. For the same compound, the “HCR (Hypoxia Cytotoxicity Ratio = normoxic IC50/hypoxic IC50)” value worked out at 0.6 in data set [12] and 1.1 in [13].
`COc1cc2c3c(c4cc(OC)c(OC)cc4c2cc1OC)CN1CCC[C@H]1C3` [(S)-Tylophorine]: the “PBS (pH 7.4) Solubility μM Mean ± SE” value in [1] amounted to 2 ± 0 μM. The “LogD Mean ± SE” value in data set [2] is listed as 3.14 ± 0.02. In data set [3], the “Permeability (Papp) Log [10^−6 cm/s] Mean ± SE” value is −5.4 ± 0.17 Log [10^−6 cm/s]. For the same compound, the “Kel, min^−1 (elimination rate constant)” value in data set [4] is 0.005 ± 0 min⁻¹. Further, the “t1/2, min” value in data set [4] is 2.125 ± 0.05 h. Also, the IC50 came out at 0.016 ± 0.026 µM in [5] (setting [14]); 0.035 ± 0.042 µM in data set [6] (setting [15]); 0.062 ± 0.013 µM in data set [7] (normoxia, read-out: IC50 MCF7); 0.085 ± 0.006 µM in [8] (setting [16]); 0.202 ± 0.003 µM in data set [9] (normoxia); 0.069 ± 0.02 µM in [10] (normoxia, read-out: IC50 SW480). In addition, the half-inhibitory concentration (IC50) in [11] (normoxia, read-out: IC50 MRC5) is 0.027 ± 0.002 µM; in [12] (setting [17]), 0.0501 µM; in [12] (setting [18]), 0.0351 µM; in data set [13] (setting [19]), 0.102 µM; in data set [13] (setting [20]), 0.108 µM. Also, the “HCR (Hypoxia Cytotoxicity Ratio = normoxic IC50/hypoxic IC50)” value in [12] came out at 0.5; in data set [13], 1.1.
For the compound `CN(C)CCCN1c2ccccc2Sc2ccc(Cl)cc21` [Chlorpromazine], in data set [3], the “Permeability (Papp) Log [10^−6 cm/s] Mean ± SE” value is −5.4 ± 0.13 Log [10^−6 cm/s].
Take `CN1CCN(C2=Nc3cc(Cl)ccc3Nc3ccccc32)CC1` [Clozapine]: the “Permeability (Papp) Log [10^−6 cm/s] Mean ± SE” value in data set [3] is −5.1 ± 0.12 Log [10^−6 cm/s].
For `COc1ccc2c3c(c4cc(OC)c(OC)cc4c2c1)C[C@H]1CCC[N+]1(Cc1c([N+](=O)[O-])ncn1C)C3.[Br-]` (stereo partly drawn) [Compound 5a, (13aR)-2,3,6-trimethoxy-10-((1-methyl-4-nitro-1H-imidazol-5-yl)methyl)-10,11,12,13,13a, 14-hexahydro-9H-dibenzo[f,h]pyrrolo[1,2-b]isoquinolin-10-ium bromide], the “PBS (pH 7.4) Solubility μM Mean ± SE” value in [1] is listed as 154 ± 0 μM. In addition, the “LogD Mean ± SE” value in [2] came out at 0.69 ± 0.01. In data set [3], the “Permeability (Papp) Log [10^−6 cm/s] Mean ± SE” value was under −7 Log [10^−6 cm/s]. Besides, the IC50 stood at 5.08 ± 0.519 µM in data set [5] (Homo sapiens, HEK293, read-out: IC50 HEK293); 1.68 ± 0.542 µM in data set [6] (Cricetulus griseus, CHO-K1, read-out: IC50 CHO-K1); 1.53 ± 0.144 µM in data set [7] (Homo sapiens, MCF7, read-out: IC50 MCF7); 1.04 ± 0.021 µM in data set [8] (Homo sapiens, HCT-116, read-out: IC50 HCT116); 2.03 ± 0.267 µM in data set [9] (Homo sapiens, RKO); 1.35 ± 0.000126 µM in data set [10] (Homo sapiens, SW480, read-out: IC50 SW480). Further, the IC50 in data set [11] (Homo sapiens, MRC5, read-out: IC50 MRC5) came out at 0.327 ± 0.147 µM; in data set [12] (Homo sapiens, HCT-116, HTC 116, hypoxia, read-out: IC50 (Hypoxia)), 0.425 µM; in [12] (Homo sapiens, HCT-116, HTC 116, normoxia, read-out: IC50 (Normoxia)), 16.5 µM; in data set [13] (Homo sapiens, NCI-H460, H460, hypoxia, read-out: IC50 (Hypoxia)), 0.618 µM; in data set [13] (Homo sapiens, NCI-H460, H460, normoxia, read-out: IC50 (Normoxia)) it was 15.8 µM.
